Assay results published in patent US10561666B2, “Amido compounds as RORγt modulators and uses thereof” (New York University, priority 2010, dated 2020).

Target: RORγt (Mus musculus, UniProt P51450, T352K)
Assay: RORγt S2 cell Gal4-luciferase reporter assay
Conditions: for Emax: read-out: Efficacy (%)
[1] = IC50(μM), Drosophila S2 cells, Gal4-RORγt luciferase reporter, 20 hr
[2] = S2 cell RORg IC50 μM, S2 cell reporter assay, listed for comparison

Chain of RORγt (P51450 with tags, fused parts or gaps T352K): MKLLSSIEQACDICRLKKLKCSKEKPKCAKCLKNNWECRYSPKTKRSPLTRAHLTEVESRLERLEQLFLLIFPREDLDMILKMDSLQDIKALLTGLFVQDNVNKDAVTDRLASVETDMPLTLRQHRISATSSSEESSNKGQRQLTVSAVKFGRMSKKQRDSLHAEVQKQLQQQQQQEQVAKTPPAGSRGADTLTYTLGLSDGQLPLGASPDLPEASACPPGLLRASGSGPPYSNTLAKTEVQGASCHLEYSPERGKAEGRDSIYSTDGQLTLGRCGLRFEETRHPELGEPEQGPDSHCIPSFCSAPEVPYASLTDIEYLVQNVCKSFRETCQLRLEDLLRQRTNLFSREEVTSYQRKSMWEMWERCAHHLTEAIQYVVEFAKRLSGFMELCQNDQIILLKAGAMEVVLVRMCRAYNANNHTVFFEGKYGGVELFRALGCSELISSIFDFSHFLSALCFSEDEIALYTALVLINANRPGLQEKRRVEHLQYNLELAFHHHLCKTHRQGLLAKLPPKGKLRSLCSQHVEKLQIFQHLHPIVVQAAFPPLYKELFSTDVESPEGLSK
Excerpt: Methods: The Drosophila S2 cell line was originally purchased from Invitrogen and was maintained in Schneider's medium supplemented with 10% heat-inactivated bovine fetal calf serum and antibiotics (Invitrogen). […] The resulting chimeric gene was subcloned into the copper inducible pMT/V5-His A vector (available from Invitrogen).
In order to generate stable cell lines, cells were co-transfected with pMT-G4DBD-RORγt, pMT-G4DBD-RORα, pMT-G4DBD-DHR3, or pMT-G4DBDVP16 and pHygro plasmids (Invitrogen) and screened for resistant colonies in the presence of hygromycin (0.3 mg/mL).
Methods: 600 G4DBD-RORγ/γt-luc reporter (#25) or G4DBD-VP16-luc reporter cells were distributed into each well of 1,536-well white bottom plates in 4 μl S2 cell culture volume containing hygromicin (300 μg/ml) and puromycin (2 μg/ml). […] After one-hour incubation, 1 μl of culture medium solution containing copper sulfate (to final 0.7 mM) and 10 μM RORγ/γt antagonists were added to each well. After 20-hour incubation at ambient temperature, 1.5 μl firefly luciferase detection mix was added and the luciferase activities were measured in 10 min. ViewLux luminometers were used for measuring luciferase signal.
Since their cognate DNA binding sites were not well characterized, the DNA binding domains (DBD) of RORγ/γt, RORα (mouse homolog for POPγ), and DHR3 (Drosophila orthologue for ROR family proteins) were replaced with the heterologous yeast GAL4 DBD. The transcriptionally active domain of general transcriptional activator VP16 was also fused with GAL4 DBD. The GAL4 fusion constructs were placed under the control of a copper inducible promoter, and stable S2 cell lines with genomic integration of these four reporter constructs were generated. The copper inducible promoter ensures tight regulation of GAL4-fusion protein expression and it allows small molecules to get into the cells prior to protein induction, thus increasing their effects on GAL4 reporters. The stable reporter cell lines also encode the firefly luciferase reporter, whose expression is regulated by five copies of the GAL4 binding site enhancer (UAS), along with the pol III-driven Renilla luciferase reporter.
A cell-based reporter assay was used to detect RORγt-mediated activity. This assay, called RORγt□ employed Drosophila Schneider cells that were stably transfected with two vectors: a gene expressing a fusion of the Gal4 DNA binding domain and RORγt transactivation domain under the control of the metallothionine promoter and a Photinus luciferase reporter regulated by the Gal4 binding site enhancer, UAS. […] Cells (600/well) were dispensed into white solid 1536-well plates (Greiner) using a solenoid-based dispenser. Following transfer of 23 nL compound or DMSO vehicle by a pin tool, the plates were incubated 1 hr at ambient temperature, and 1 uL/well copper sulfate (700 uM final concentration) was added. The plates were centrifuged 15 s at 1000 RPM and incubated 20 hr at ambient temperature. After addition of 1.5 uL Photinus luciferase detection reagent, the plates were incubated 10 min at ambient temperature and then read by a ViewLux (Perkin Elmer) to detect luminescence. […] Efficacy is expressed as % of the maximal response of control inhibitor (Digoxin), set at 100%.

“1-(3,5-Dimethylpiperidin-1-yl)-3-(2-hydroxy-4,6-dimethoxyphenyl)-3-(3-(methylsulfonyl)phenyl)propan-1-one [Compound 83]” was tested, and the “Efficacy (%)” value (% of the maximal response of control inhibitor (Digoxin), set at 100%) was −93.79% and the IC50 (Drosophila S2 cells, Gal4-RORγt luciferase reporter, 20 hr) was 1 to 10 µM.

`COc1cc(O)c(C(CC(=O)N2CCCC(C)C2)c2ccc3c(c2)OCO3)c(OC)c1` (stereo not drawn) [Compound 3] showed an IC50 [1] of 1 to 10 µM and an Emax of 98.8%.

`COc1cc(O)c(C(CC(=O)N2CCOCC2)c2ccc3c(c2)OCO3)c(OC)c1` (stereo not drawn) [Compound 4] showed an IC50 [1] of 11 to 50 µM and an Emax of 20.2%.

With `COc1cc(O)c(C(CC(=O)N2CCCCC2)c2ccc3c(c2)OCO3)c(OC)c1` (stereo not drawn) [Compound 5] the IC50 [1] was 11 to 50 µM and the Emax was 90.4%.

Molecule `COc1cc(O)c(C(CC(=O)N2CCCC(C#N)C2)c2ccc3c(c2)OCO3)c(OC)c1` (stereo not drawn) [Compound 6] has an IC50 [1] of 11 to 50 µM and an Emax of 66%.

In the case of `CCC1CCCN(C(=O)CC(c2ccc3c(c2)OCO3)c2c(O)cc(OC)cc2OC)C1` (stereo not drawn) [Compound 7], the IC50 [1] is reported as 1 to 10 µM and the Emax is reported as 96.2%.

`CCCC1CCN(C(=O)CC(c2ccc3c(c2)OCO3)c2c(O)cc(OC)cc2OC)C1` (stereo not drawn) [Compound 9] gave an IC50 [1] of 11 to 50 µM and an Emax of 63.5%.

Work on `CCC1(CC)CCN(C(=O)CC(c2ccc3c(c2)OCO3)c2c(O)cc(OC)cc2OC)C1` (stereo not drawn) [Compound 10] yielded an IC50 [1] of 11 to 50 µM and an Emax of 89%.

In the case of `COc1cc(O)c(C(CC(=O)N2CCCC(C(C)C)C2)c2ccc3c(c2)OCO3)c(OC)c1` (stereo not drawn) [Compound 11], the IC50 [1] is reported as 11 to 50 µM and the Emax is reported as 102%.

`COCC1CCCN(C(=O)CC(c2ccc3c(c2)OCO3)c2c(O)cc(OC)cc2OC)C1` (stereo not drawn) [Compound 12] gave an IC50 [1] of 11 to 50 µM and an Emax of 90.4%.

`CCC(=O)C1CCCN(C(=O)CC(c2ccc3c(c2)OCO3)c2c(O)cc(OC)cc2OC)C1` (stereo not drawn) [Compound 13] was tested, and the IC50 [1] was over 50 µM.

Work on `COc1cc(O)c(C(CC(=O)N2CCCC(c3ccccc3)C2)c2ccc3c(c2)OCO3)c(OC)c1` (stereo not drawn) [Compound 14] yielded an IC50 [1] of 11 to 50 µM and an Emax of 70.1%.

Molecule `COc1cc(O)c(C(CC(=O)N2CCCC(CN3CCCCC3)C2)c2ccc3c(c2)OCO3)c(OC)c1` (stereo not drawn) [Compound 15] has an IC50 [1] of over 50 µM.

Molecule `COc1cc(O)c(C(CC(=O)N2CCCC(C(=O)c3ccccc3)C2)c2ccc3c(c2)OCO3)c(OC)c1` (stereo not drawn) [Compound 16] has an IC50 [1] of over 50 µM.

Molecule `COc1cc(O)c(C(CC(=O)N2CCCC(C(=O)N3CCCCC3)C2)c2ccc3c(c2)OCO3)c(OC)c1` (stereo not drawn) [Compound 17] has an IC50 [1] of over 50 µM.

Molecule `COc1cc(O)c(C(CC(=O)N2CCCC(c3nc4ccccc4o3)C2)c2ccc3c(c2)OCO3)c(OC)c1` (stereo not drawn) [Compound 18] has an IC50 [1] of 11 to 50 µM and an Emax of 90.6%.

`COc1cc(O)c(C(CC(=O)N2CCCC(COc3ccc(F)cc3)C2)c2ccc3c(c2)OCO3)c(OC)c1` (stereo not drawn) [Compound 19] was tested, and the IC50 [1] was 11 to 50 µM and the Emax was 47.5%.

Work on `COc1cc(O)c(C(CC(=O)N2CCCC(CO)C2)c2ccc3c(c2)OCO3)c(OC)c1` (stereo not drawn) [Compound 20] yielded an IC50 [1] of 11 to 50 µM and an Emax of 44.7%.

`COc1cc(O)c(C(CC(=O)NCc2ccccc2)c2ccc3c(c2)OCO3)c(OC)c1` (stereo not drawn) [Compound 21] was tested, and the IC50 [1] was over 50 µM.

For `COc1cc(O)c(C(CC(=O)NC2CCC(C)CC2)c2ccc3c(c2)OCO3)c(OC)c1` (stereo not drawn) [Compound 23], the IC50 [1] was 11 to 50 µM and the Emax was 76.8%.

`COc1cc(O)c(C(CC(=O)NCC2CCCCC2)c2ccc3c(c2)OCO3)c(OC)c1` (stereo not drawn) [Compound 24] showed an IC50 [1] of over 50 µM.

`COc1cc(O)c(C(CC(=O)NC2CCCc3ccccc32)c2ccc3c(c2)OCO3)c(OC)c1` (stereo not drawn) [Compound 26] gave an IC50 [1] of over 50 µM.

`COc1cc(O)c(C(CC(=O)N2CCc3ccccc3C2)c2ccc3c(c2)OCO3)c(OC)c1` (stereo not drawn) [Compound 27] was tested, and the IC50 [1] was 11 to 50 µM and the Emax was 80.7%.

`COc1cc(O)c(C(CC(=O)N(C)c2cccc(C)c2)c2ccc3c(c2)OCO3)c(OC)c1` (stereo not drawn) [Compound 28] gave an IC50 [1] of over 50 µM.

With `COc1cc(O)c(C(CC(=O)Nc2ccc(C)cc2)c2ccc3c(c2)OCO3)c(OC)c1` (stereo not drawn) [Compound 29] the IC50 [1] was over 50 µM.

`COc1cc(O)c(C(CC(=O)Nc2cccc3ccccc23)c2ccc3c(c2)OCO3)c(OC)c1` (stereo not drawn) [Compound 31] showed an IC50 [1] of over 50 µM.

Work on `COc1cc(O)c(C(CC(=O)N2CCc3ccccc32)c2ccc3c(c2)OCO3)c(OC)c1` (stereo not drawn) [Compound 32] yielded an IC50 [1] of over 50 µM.

Work on `COc1cc(O)c(C(CC(=O)N(Cc2ccccc2)Cc2ccccc2)c2ccc3c(c2)OCO3)c(OC)c1` (stereo not drawn) [Compound 33] yielded an IC50 [1] of over 50 µM.

In the case of `COc1cc(O)c(C(CC(=O)N[C@H](C)c2ccccc2)c2ccc3c(c2)OCO3)c(OC)c1` (stereo partly drawn) [Compound 34], the IC50 [1] is reported as over 50 µM.

`COc1cc(O)c([C@H](CC(=O)N2CC(C)CC(C)C2)c2ccc3c(c2)OCO3)c(OC)c1` (stereo partly drawn) [Compound 36] was tested, and the Emax was 91%.

`COc1cc(O)c(C(CC(=O)N2CCCC2)c2ccc3c(c2)OCO3)c(OC)c1` (stereo not drawn) [Compound 37] gave an IC50 [1] of 11 to 50 µM and an Emax of 27.1%.

Molecule `CCN(CC)C(=O)CC(c1ccc2c(c1)OCO2)c1c(O)cc(OC)cc1OC` (stereo not drawn) [Compound 39] has an IC50 [1] of 11 to 50 µM and an Emax of 64.9%.

Molecule `COc1cc(O)c(C(CC(=O)N2CCN(c3ccc(F)cc3)CC2)c2ccc3c(c2)OCO3)c(OC)c1` (stereo not drawn) [Compound 40] has an IC50 [1] of over 50 µM.

In the case of `COc1cc(O)c(C(CC(=O)N2CCC(Cc3ccccc3)CC2)c2ccc(C)cc2)c(OC)c1` (stereo not drawn) [Compound 44], the IC50 [1] is reported as over 50 µM.

Work on `COc1cc(O)c(C(CC(=O)N2CCC(c3ccccc3)CC2)c2ccc(OC)c(OC)c2)c(OC)c1` (stereo not drawn) [Compound 45] yielded an IC50 [1] of over 50 µM.

`COc1ccc(C(CC(=O)Nc2ccc(F)cc2)c2ccccc2)cc1` (stereo not drawn) [Compound 46] showed an IC50 [1] of over 50 µM.

In the case of `Cc1ccc(O)c(C(CC(=O)NC2CCCCC2)c2ccccc2)c1` (stereo not drawn) [Compound 47], the IC50 [1] is reported as over 50 µM.

`Cc1cccc(C(CC(=O)NCCc2ccccc2)c2ccccc2)c1O` (stereo not drawn) [Compound 48] showed an IC50 [1] of over 50 µM.

Molecule `Cc1cccc(C(CC(=O)NCc2ccco2)c2ccccc2)c1O` (stereo not drawn) [Compound 49] has an IC50 [1] of over 50 µM.

`COc1ccccc1C(CC(=O)Nc1ccc(F)cc1)c1ccccc1` (stereo not drawn) [Compound 50] gave an IC50 [1] of over 50 µM.

`COc1ccc(C(CC(=O)N2CCCC(C)C2)c2ccccc2)cc1` (stereo not drawn) [Compound 51] gave an IC50 [1] of over 50 µM.

In the case of `COc1ccccc1C(CC(=O)N1CCCC(C)C1)c1ccccc1` (stereo not drawn) [Compound 52], the IC50 [1] is reported as over 50 µM.

With `CC1CCCN(C(=O)CC(c2ccccc2)c2ccc(O)cc2)C1` (stereo not drawn) [Compound 53] the IC50 [1] was over 50 µM.

For `CC1CCCN(C(=O)CC(c2ccccc2)c2ccccc2O)C1` (stereo not drawn) [Compound 54], the IC50 [1] was over 50 µM.

Molecule `COc1ccccc1C(CC(=O)N1C[C@H](C)C[C@H](C)C1)c1ccccc1` (stereo partly drawn) [Compound 55] has an IC50 [1] of over 50 µM and an IC50 [2] of over 20 µM.

`COc1ccccc1C(CC(=O)N1CCCCC1)c1ccccc1` (stereo not drawn) [Compound 56] was tested, and the IC50 [1] was 1 to 10 µM and the Emax was 30.5%.

`COc1cc(O)c(C(CC(=O)N2CCCC(C)C2)c2ccc(OC)c(OC)c2)c(OC)c1` (stereo not drawn) [Compound 58] was tested, and the IC50 [1] was 11 to 50 µM and the Emax was 98.2%.

Molecule `COc1cc(O)c(C(CC(=O)N2CCCC(C)C2)c2ccccc2OC)c(OC)c1` (stereo not drawn) [Compound 59] has an IC50 [1] of over 50 µM and an IC50 [2] of over 20 µM.

`CCOc1ccc(C(CC(=O)N2CCCC(C)C2)c2c(O)cc(OC)cc2OC)cc1` (stereo not drawn) [Compound 62] showed an IC50 [1] of 1 to 10 µM and an Emax of 100%.

Work on `COc1cc(O)c(C(CC(=O)N2CCCC(C)C2)c2ccc(C(C)C)cc2)c(OC)c1` (stereo not drawn) [Compound 64] yielded an IC50 [1] of 1 to 10 µM, an IC50 [2] of 1 to 10 µM and an Emax of 99.3%.

For `COc1cc(O)c(C(CC(=O)N2CCCC(C)C2)c2ccc3ccccc3c2)c(OC)c1` (stereo not drawn) [Compound 65], the IC50 [1] was 1 to 10 µM, the IC50 [2] was 1 to 10 µM and the Emax was 92.4%.

Work on `COc1cc(O)c(C(CC(=O)N2CCCC(C)C2)c2cccc3ccccc23)c(OC)c1` (stereo not drawn) [Compound 66] yielded an IC50 [1] of 11 to 50 µM, an IC50 [2] of 11 to 20 µM and an Emax of 52%.
